Several values for one entry are separate records, joined by “and”; a condition that tells them apart may be missing. Identical values can stand only once. Inconclusive results and toxic doses are left out. Rule for the calls: active = survival T/C of 150% or more; inactive = T/C below 125% in these data.
Test system: P388 leukemia ip, CD2F1 mice, survival T/C
Assay: NCI In Vivo Anticancer Drug Screen. Data for tumor model P388 Leukemia (intraperitoneal) in CD2F1 (CDF1) mice
Details: endpoint: median survival time, higher = longer survival
Summary of the method: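 Mice carrying the transplanted tumor received test compound or vehicle. Survival was recorded in each group, and the value is the treated-group measurement divided by that of the vehicle-treated control group.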

[1] = dose: 25.0 mg/kg/injection, schedule: Q01DX009 (ip), vehicle: saline with Tween-80
[2] = dose: 50.0 mg/kg/injection, schedule: Q01DX009 (ip), vehicle: saline with Tween-80
[3] = dose: 100.0 mg/kg/injection, schedule: Q01DX009 (ip), vehicle: saline with Tween-80
[4] = dose: 200.0 mg/kg/injection, schedule: Q01DX009 (ip), vehicle: saline with Tween-80
[5] = dose: 60.0 mg/kg/injection, schedule: Q01DX005 (ip), vehicle: Klucel (hydroxypropylcellulose) (HPC)
[6] = dose: 120.0 mg/kg/injection, schedule: Q01DX005 (ip), vehicle: Klucel (hydroxypropylcellulose) (HPC)
[7] = dose: 25.0 mg/kg/injection, schedule: Q01DX009 (ip), vehicle: Klucel (hydroxypropylcellulose) (HPC)
[8] = dose: 50.0 mg/kg/injection, schedule: Q01DX009 (ip), vehicle: Klucel (hydroxypropylcellulose) (HPC)
[9] = dose: 100.0 mg/kg/injection, schedule: Q01DX009 (ip), vehicle: Klucel (hydroxypropylcellulose) (HPC)
[10] = dose: 240.0 mg/kg/injection, schedule: Q01DX005 (ip), vehicle: Klucel (hydroxypropylcellulose) (HPC)
[11] = dose: 60.0 mg/kg/injection, schedule: Q01DX005 (ip), vehicle: saline with Tween-80
[12] = dose: 120.0 mg/kg/injection, schedule: Q01DX005 (ip), vehicle: saline with Tween-80
[13] = dose: 240.0 mg/kg/injection, schedule: Q01DX005 (ip), vehicle: saline with Tween-80
[14] = dose: 25.0 mg/kg/injection, schedule: Q01DX005 (ip), vehicle: saline
[15] = dose: 50.0 mg/kg/injection, schedule: Q01DX005 (ip), vehicle: saline with Tween-80
[16] = dose: 50.0 mg/kg/injection, schedule: Q01DX005 (ip), vehicle: saline
[17] = dose: 100.0 mg/kg/injection, schedule: Q01DX005 (ip), vehicle: saline
[18] = dose: 100.0 mg/kg/injection, schedule: Q01DX005 (ip), vehicle: saline with Tween-80
[19] = dose: 200.0 mg/kg/injection, schedule: Q01DX005 (ip), vehicle: saline with Tween-80
[20] = dose: 50.0 mg/kg/injection, schedule: Q01DX005 (ip), vehicle: Klucel (hydroxypropylcellulose) (HPC)
[21] = dose: 100.0 mg/kg/injection, schedule: Q01DX005 (ip), vehicle: Klucel (hydroxypropylcellulose) (HPC)
[22] = dose: 200.0 mg/kg/injection, schedule: Q01DX005 (ip), vehicle: Klucel (hydroxypropylcellulose) (HPC)

Measured: T/C

COC(=S)NC(=O)c1ccc(Cl)c(Cl)c1
inactive: [1] 108 % of control | [2] 107 % of control | [3] 99 % of control | [4] 110 % of control

Cc1c(C2=C(Br)C(=O)N(C)C2=O)c(=O)n(C)c(=O)n1C
inactive: [5] 111 % of control | [6] 118 % of control

CCn1c2nc(=O)n(C)c(=O)c-2cc2ccccc21
inactive: [2] 111 % of control | [3] 111 % of control | [4] 116 % of control

CCOC(CN(C)C)C(Cl)(Cl)Cl (centres undefined)
inactive: [7] 103 % of control | [8] 103 % of control | [9] 88 % of control | dose: 200.0 mg/kg/injection, schedule: Q01DX009 (ip), vehicle: Klucel (hydroxypropylcellulose) (HPC) 108 % of control

CCCCCCC(=O)/C=C/c1ccccc1OC(=O)/C=C/c1ccccc1
inactive: dose: 50.0 mg/kg/injection, schedule: Q01DX005 (ip), vehicle: saline + alcohol 96 % of control | dose: 100.0 mg/kg/injection, schedule: Q01DX005 (ip), vehicle: saline + alcohol 92 % of control

O=c1[nH]ncn1-c1ccccc1
inactive: dose: 12.5 mg/kg/injection, schedule: Q01DX009 (ip), vehicle: Klucel (hydroxypropylcellulose) (HPC) 100 % of control | [7] 109 % of control | [8] 98 % of control | [9] 106 % of control

C/C=C/C(=O)Nc1cccc(OC(=O)NC(C)(C)C)c1
inactive: [1] 101 % of control | [2] 100 % of control | [3] 97 % of control

c1ccc(N2CN(c3ccccc3)C2)cc1
inactive: [5] 88 % of control | [6] 86 % of control | [10] 88 % of control

Nc1nc2ncn(COC(CO)CO)c2c(=O)[nH]1
inactive: [11] 100 % of control | [12] 98 % of control | [13] 100 % of control

NCCN.O=S(=O)([O-])[O-].[Cu+2].[OH3+].[OH3+]
inactive: dose: 6.25 mg/kg/injection, schedule: Q04DX002 (ip), vehicle: saline 100 % of control | dose: 12.5 mg/kg/injection, schedule: Q04DX002 (ip), vehicle: saline 100 % of control | dose: 25.0 mg/kg/injection, schedule: Q04DX002 (ip), vehicle: saline 100 % of control

COc1cc(C2c3cc4c(cc3OC(C)(O)C2C)OCO4)cc(OC)c1OC (centres undefined)
inactive: dose: 12.5 mg/kg/injection, schedule: Q01DX005 (ip), vehicle: saline 104 % of control and 105 % of control | dose: 25.0 mg/kg/injection, schedule: Q01DX005 (ip), vehicle: saline with Tween-80 107 % of control | [14] 105 % of control | [15] 103 % of control | [16] 102 % of control and 105 % of control | [17] 107 % of control and 113 % of control | dose: 200.0 mg/kg/injection, schedule: Q01DX005 (ip), vehicle: saline 111 % of control

c1ccc(N2CCN(C(c3cccs3)N3CCN(c4ccccc4)CC3)CC2)cc1
inactive: [11] 100 % of control | [12] 99 % of control

Cc1ccc(S(=O)(=O)C2C(C)(C)C2(Sc2ccccc2)[Si](C)(C)C)cc1 (centres undefined)
inactive: [5] 102 % of control | [6] 106 % of control | [10] 92 % of control

O=C1c2ccccc2-c2nnsc21
inactive: [5] 98 % of control | [6] 107 % of control | [10] 100 % of control

COc1cc2c(cc1OC)C(C)N(C)c1c-2c(OC(C)=O)cc2cc(OC)c(OC)cc12 (centres undefined)
inactive: [15] 97 % of control | [18] 100 % of control | [19] 92 % of control

Cc1ccc(S(=O)(=O)SC(C)(C)C)cc1
inactive: [20] 112 % of control | [21] 112 % of control | [22] 112 % of control

CC(=O)ON=C(C1CC1)C1CC1
inactive: dose: 37.5 mg/kg/injection, schedule: Q01DX009 (ip), vehicle: other 100 % of control | dose: 75.0 mg/kg/injection, schedule: Q01DX009 (ip), vehicle: other 106 % of control | dose: 150.0 mg/kg/injection, schedule: Q01DX009 (ip), vehicle: other 100 % of control | dose: 300.0 mg/kg/injection, schedule: Q01DX009 (ip), vehicle: other 110 % of control

CN(C)c1cnc(N)nc1N
inactive: [14] 95 % of control and 97 % of control | [16] 97 % of control | [17] 95 % of control

COc1ccc(CC(O)c2cc(OC)c(OC)c(OC)c2)cc1O (centres undefined)
inactive: dose: 2.5 mg/kg/injection, schedule: Q01DX009 (ip), vehicle: saline + alcohol 108 % of control | dose: 5.0 mg/kg/injection, schedule: Q01DX009 (ip), vehicle: saline + alcohol 118 % of control | dose: 10.0 mg/kg/injection, schedule: Q01DX009 (ip), vehicle: saline + alcohol 114 % of control | dose: 20.0 mg/kg/injection, schedule: Q01DX009 (ip), vehicle: saline + alcohol 101 % of control | dose: 22.5 mg/kg/injection, schedule: Q01DX009 (ip), vehicle: saline + Tween-80 + alcohol 108 % of control | dose: 45.0 mg/kg/injection, schedule: Q01DX009 (ip), vehicle: saline + Tween-80 + alcohol 114 % of control | dose: 90.0 mg/kg/injection, schedule: Q01DX009 (ip), vehicle: saline + Tween-80 + alcohol 107 % of control | dose: 180.0 mg/kg/injection, schedule: Q01DX009 (ip), vehicle: saline + Tween-80 + alcohol 123 % of control

CCOC(=O)C(N=Nc1ccc(C)cc1Br)C(C)=O (centres undefined)
inactive: [15] 102 % of control | [18] 93 % of control | [19] 93 % of control

Fc1ccc(C(Nc2nncs2)Nc2nncs2)c(F)c1
inactive: [11] 105 % of control | [12] 96 % of control | [13] 107 % of control

CC(=O)NS(=O)(=O)c1ccc(NN=Nc2ccccc2Cl)cc1
inactive: [20] 95 % of control | [21] 94 % of control | [22] 97 % of control

C1CCC(N2CCOCC2)CC1
inactive: dose: 12.5 mg/kg/injection, schedule: Q01DX009 (ip), vehicle: saline 99 % of control | dose: 25.0 mg/kg/injection, schedule: Q01DX009 (ip), vehicle: saline 117 % of control | dose: 50.0 mg/kg/injection, schedule: Q01DX009 (ip), vehicle: saline 100 % of control and 101 % of control
